# Assay results from ChEMBL document CHEMBL5360528, “A systematic review on the kappa opioid receptor and its ligands: New directions for the treatment of pain, anxiety, depression, and drug abuse” (Eur J Med Chem, 2022).
# Where a SMILES comes first, the peptide text is derived from it. [ ]: non-standard residue; d: D form. βAla = NCCC(=O)O
# What was measured:
# Mus musculus [1] = organism: Mus musculus; experiment: Antinociceptive activity in Sprague-Dawley mouse assessed as inhibition of acetic acid-induced abdominal constrictions; assay type: functional
# Mus musculus [2] = organism: Mus musculus; experiment: Antinociceptive activity in Sprague-Dawley mouse assessed as inhibition of acetic acid-induced abdominal constrictions in presence of naloxone; assay type: functional
# Mu-type opioid receptor [3] = target: T1, Mu-type opioid receptor (Homo sapiens, UniProt P35372); experiment: Binding affinity to MOR (unknown origin) assessed as inhibition constant by radioligand binding assay
# [4] = target: T2, Kappa-type opioid receptor (Homo sapiens, UniProt P41145); experiment: Agonist activity at KOR (unknown origin) by measuring cAMP inhibition; assay type: functional
# [5] = target: T2, Kappa-type opioid receptor; experiment: Binding affinity to KOR (unknown origin) expressed in CHO-K1 cell membrane assessed as stimulation of [35S]-GTPgammaS binding incubated for 1.5 hrs by scintillation spectroscopy analysis relative DAMGO; assay type: cell membranes
# [6] = target: T2, Kappa-type opioid receptor; experiment: Binding affinity to KOR (unknown origin) assessed as inhibition constant
# [7] = target: T3, Delta-type opioid receptor (Homo sapiens, UniProt P41143); experiment: Binding affinity to DOR (unknown origin) assessed as inhibition constant by ratio ligand binding assay
# [8] = target: T2, Kappa-type opioid receptor; experiment: Binding affinity to human recombinant KOR assessed as inhibition constant
# [9] = target: T2, Kappa-type opioid receptor; experiment: Binding affinity to wild type human KOR assessed as inhibition constant
# [10] = target: T2, Kappa-type opioid receptor; experiment: Agonist activity at wild type human KOR receptor expressed in CHO cells assessed as stimulation of [35S]GTPgammaS binding measured after 30 mins by scintillation counting assay; assay type: functional, cell-based
# [11] = target: Kappa-type opioid receptor (Cavia porcellus, UniProt P41144); experiment: Agonist activity at KOR in guinea pig brain membranes assessed as stimulation of [35S]GTPgammaS binding measured after 1 hr by liquid scintillation counting analysis; assay type: functional, cell membranes, Membrane
# [12] = target: T3, Delta-type opioid receptor; experiment: Binding affinity to human DOR assessed as inhibition constant
# Mus musculus [13] = organism: Mus musculus; experiment: Antinociceptive activity in CFA-induced mechanical allodynia CD1 mouse model assessed as reduction in mechanical allodynia; assay type: functional
# Mus musculus [14] = experiment: Analgesic activity in iv dosed DBTC-induced neuropathic pain CD1 mouse model assessed as effective dose measured for 1 weeks; assay type: functional; conditions: CD1, 168 h
# Mus musculus [15] = experiment: Antinociceptive activity in CFA-induced mechanical allodynia in CD1 mouse model assessed as reduction in nociceptive response by measuring effective dose at ip administration; assay type: functional
# Mus musculus [16] = experiment: Antinociceptive activity in CFA-induced mechanical allodynia in CD1 mouse model assessed as reduction in nociceptive response by measuring effective dose at iv administration; assay type: functional
# Mus musculus [17] = experiment: Antinociceptive activity in sc dosed mouse assessed as inhibition of acetic acid-induced abdominal constrictions by writhing test; assay type: functional
# Mus musculus [18] = experiment: Antinociceptive activity in C57BL/6 mouse model of acute thermal pain assessed as paw withdrawal thermal threshold time at 1 mg/kg, po measured after 4 hrs by hot plate test; assay type: functional
# Mus musculus [19] = organism: Mus musculus; experiment: Analgesic activity in acetic acid induced mouse assessed as assessed as reduction in acetic acid induced writhing […]; assay type: functional
# Mus musculus [20] = experiment: Analgesic activity in sc dosed acetic acid induced mouse assessed as assessed as reduction in acetic acid induced writhing […]; assay type: functional
# [21] = target: Kappa-type opioid receptor (Cavia porcellus) (UniProt P41144); experiment: Agonist activity at KOR in guinea pig brain membranes assessed as stimulation of [35S]GTPgammaS binding relative to control; assay type: functional, cell membranes; conditions: Membrane, filed as agonist
# Mus musculus [22] = experiment: Antinociceptive activity in CD-1 mouse assessed as maximum possible effect at 10 nmol, icv measured after 15 mins by tail-flick test; assay type: functional; conditions: 0.25 h
# [23] = Half life in C57BL/6 mouse brain at 20 mg/kg, ip by LC-MS/MS analysis; assay type: ADME, organism-based
# [24] = Half life in C57BL/6 mouse plasma at 20 mg/kg, ip by LC-MS/MS analysis; assay type: ADME, organism-based
# [25] = Half life in C57BL/6 mouse […] at 20 mg/kg, ip by LC-MS/MS analysis; assay type: ADME, organism-based
# Mu-type opioid receptor [26] = target: T1, Mu-type opioid receptor; experiment: Binding affinity to human MOR expressed in HEK293 cells assessed as inhibition constant by GTPgammaS assay; assay type: cell-based
# [27] = target: T3, Delta-type opioid receptor; experiment: Binding affinity to human DOR expressed in HEK293 cells assessed as inhibition constant by GTPgammaS assay; assay type: cell-based
# [28] = target: T3, Delta-type opioid receptor; experiment: Binding affinity human DOR expressed in CHO cells assessed as inhibition constant by radio ligand binding assay; assay type: cell-based
# Mus musculus [29] = organism: Mus musculus; experiment: Antinociceptive activity in C57BL/6 mouse model of acute thermal pain assessed as paw withdrawal thermal threshold time by hot plate test; assay type: functional
# Mu-type opioid receptor [30] = target: T1, Mu-type opioid receptor; experiment: Agonist activity at human MOR expressed in CHO-K1 cells assessed as inhibition of forskolin-stimulated cAMP accumulation incubated for 45 mins by cAMP HTRF assay; assay type: functional, cell-based
# Mus musculus [31] = experiment: Antinociceptive activity in sc dosed mouse measured after 60 mins by warm water tail-flick assay; assay type: functional; conditions: 1 h
# Mus musculus [32] = experiment: Antinociceptive activity in ip dosed mouse assessed as inhibition of acetic acid-induced abdominal constrictions by writhing test; assay type: functional
# [33] = target: Kappa-type opioid receptor (Mus musculus, UniProt P33534); experiment: Agonist activity at KOR in mouse vas deferens assessed as inhibition of electrically evoked vas deferens contraction
# Mus musculus [34] = experiment: Antinociceptive activity in sc dosed Ach-induced mouse assessed as inhibition of abdominal constriction; assay type: functional
# [35] = target: T2, Kappa-type opioid receptor; experiment: Binding affinity to human KOR expressed in HEK293 cells assessed as inhibition of forskolin-stimulated cAMP accumulation by HTRF assay; assay type: cell-based
# [36] = Tmax in Sprague-Dawley rat at 1 mg/kg, iv by LC-MS analysis; assay type: ADME, organism-based; conditions: in vivo
# [37] = Half life in human; assay type: ADME
# T3 sequence (P41143 whole entry): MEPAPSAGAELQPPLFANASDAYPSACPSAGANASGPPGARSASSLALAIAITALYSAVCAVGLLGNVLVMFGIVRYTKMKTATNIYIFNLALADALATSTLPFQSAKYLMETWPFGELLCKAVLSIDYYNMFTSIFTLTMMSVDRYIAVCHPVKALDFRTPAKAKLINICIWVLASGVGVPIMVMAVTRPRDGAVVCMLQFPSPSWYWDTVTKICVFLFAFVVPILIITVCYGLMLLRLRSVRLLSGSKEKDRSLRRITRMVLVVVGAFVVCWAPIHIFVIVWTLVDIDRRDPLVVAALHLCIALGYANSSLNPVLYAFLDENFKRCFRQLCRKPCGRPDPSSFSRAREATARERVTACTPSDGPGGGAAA
# T2 sequence (P41145 whole entry): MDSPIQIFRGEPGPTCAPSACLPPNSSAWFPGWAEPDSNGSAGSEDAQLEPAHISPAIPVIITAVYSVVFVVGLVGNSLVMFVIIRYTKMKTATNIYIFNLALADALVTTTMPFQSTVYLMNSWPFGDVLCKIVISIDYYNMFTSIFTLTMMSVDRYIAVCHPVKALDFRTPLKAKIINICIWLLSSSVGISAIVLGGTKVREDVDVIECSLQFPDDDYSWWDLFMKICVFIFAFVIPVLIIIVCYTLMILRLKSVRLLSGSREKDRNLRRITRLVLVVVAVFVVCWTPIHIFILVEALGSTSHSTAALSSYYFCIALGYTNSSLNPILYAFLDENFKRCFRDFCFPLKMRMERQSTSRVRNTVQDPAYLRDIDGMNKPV
# T1 sequence (P35372 whole entry): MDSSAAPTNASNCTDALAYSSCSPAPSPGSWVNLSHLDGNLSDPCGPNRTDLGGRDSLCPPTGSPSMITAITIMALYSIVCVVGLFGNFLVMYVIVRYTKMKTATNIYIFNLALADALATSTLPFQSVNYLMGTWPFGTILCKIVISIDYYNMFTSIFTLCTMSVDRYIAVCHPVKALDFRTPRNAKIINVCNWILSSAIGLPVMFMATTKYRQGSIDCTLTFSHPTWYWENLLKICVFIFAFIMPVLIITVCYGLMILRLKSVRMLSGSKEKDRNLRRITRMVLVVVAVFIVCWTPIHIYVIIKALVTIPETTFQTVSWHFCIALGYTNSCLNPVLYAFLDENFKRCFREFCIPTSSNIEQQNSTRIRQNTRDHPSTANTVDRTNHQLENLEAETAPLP
# Chain of Kappa-type opioid receptor (Mus musculus, UniProt P33534) (P33534 whole entry): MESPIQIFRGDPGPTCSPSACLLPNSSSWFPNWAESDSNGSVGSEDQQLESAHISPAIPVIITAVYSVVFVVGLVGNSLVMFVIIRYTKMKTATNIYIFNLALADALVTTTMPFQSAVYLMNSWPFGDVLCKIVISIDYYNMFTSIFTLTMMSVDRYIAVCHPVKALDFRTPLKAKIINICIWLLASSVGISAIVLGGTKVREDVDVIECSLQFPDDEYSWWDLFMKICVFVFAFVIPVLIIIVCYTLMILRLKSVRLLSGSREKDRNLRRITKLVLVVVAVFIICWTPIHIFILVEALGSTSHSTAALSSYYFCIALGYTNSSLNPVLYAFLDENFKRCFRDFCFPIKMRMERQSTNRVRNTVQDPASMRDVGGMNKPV
# Chain of Kappa-type opioid receptor (Cavia porcellus) (P41144 whole entry): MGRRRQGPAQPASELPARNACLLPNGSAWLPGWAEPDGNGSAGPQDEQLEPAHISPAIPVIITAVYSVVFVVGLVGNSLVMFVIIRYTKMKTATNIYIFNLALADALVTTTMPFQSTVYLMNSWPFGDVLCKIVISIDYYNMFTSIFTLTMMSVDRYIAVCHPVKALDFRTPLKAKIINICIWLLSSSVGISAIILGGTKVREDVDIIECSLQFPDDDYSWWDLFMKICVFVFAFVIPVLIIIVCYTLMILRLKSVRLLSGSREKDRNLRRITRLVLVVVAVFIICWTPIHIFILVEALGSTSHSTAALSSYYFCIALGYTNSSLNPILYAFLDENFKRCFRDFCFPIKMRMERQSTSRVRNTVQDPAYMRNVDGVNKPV
# Chain of Kappa-type opioid receptor (Cavia porcellus, UniProt P41144) (P41144 whole entry): as above
smiles,measurement,setting,value
C[C@H]1[C@@H]2Cc3ccc(O)cc3[C@]1(C)CCN2CC1CC1,ED50,Mus musculus [1],0.47 mg/kg
same,ED50,Mus musculus [2],0.077 mg/kg
C[N+]1(CC2CC2)CC[C@]23c4c5ccc(O)c4O[C@H]2C(=O)CC[C@@]3(O)[C@H]1C5 (some centres not stated) [METHYLNALTREXONE],Ki,Mu-type opioid receptor [3],10 nM
same,EC50,[4],6.7 nM
same,Ki,[5],~30 nM
CC(C)=CCN1CC[C@@]2(C)c3cc(O)ccc3CC1C2C (some centres not stated) [PENTAZOCINE],Ki,[6],7.6 nM
same,EC50,[4],40 nM
same,Ki,[7],62 nM
CC(C)C[C@@H](NC(=O)[C@@H](Cc1ccccc1)NC(=O)[C@H](N)Cc1ccccc1)C(=O)N[C@H](CCCCN)C(=O)N1CCC(N)(C(=O)O)CC1 [listing 1 of 2 here],Ki,[6],0.32 nM
same,Ki,Mu-type opioid receptor [3],> 10000 nM
CN(C(=O)C(c1ccccc1)c1ccccc1)[C@H](CN1CC[C@H](O)C1)c1ccccc1 [ASIMADOLINE],Ki,[8],5.6 nM
O=C(O[C@@H]1[C@@H]2[C@H]3C[C@@H](C[C@H]2C(=O)O[C@H]1c1ccoc1)OC3=O)c1ccccc1,Ki,[9],9 nM
same,EC50,[10],2 nM
same,Ki,[11],> 5000 nM
O=C(N[C@@H]1CC[C@@]2(O)[C@H]3Cc4ccc(O)c5c4[C@@]2(CCN3CC2CC2)[C@H]1O5)c1cc[n+](Cc2ccccc2)cc1,Ki,[6],3.46 nM
same,Ki,Mu-type opioid receptor [3],3.46 nM
same,Ki,[12],722 nM
CC(C)C[C@@H](NC(=O)[C@@H](Cc1ccccc1)NC(=O)[C@H](N)Cc1ccccc1)C(=O)N[C@H](CCCCN)C(=O)N1CCC(N)(C(=O)O)CC1 [listing 2 of 2 here],ED50,Mus musculus [13],0.07 mg/kg
same,ED50,Mus musculus [14],0.3 mg/kg
same,ED50,Mus musculus [15],0.3 mg/kg
same,ED50,Mus musculus [16],0.38 mg/kg
C[C@H]1[C@H]2Cc3ccc(O)cc3[C@@]1(C)CCN2CCc1ccccc1,ED50,"Mus musculus [17]; Mus musculus, read-out: ED50",6.3 mg/kg
CC(C)C[C@@H](NC(=O)[C@@H](CC1=CC=CCC1)NC(=O)[C@H](N)Cc1ccccc1)C(=O)N[C@H](CCCN)C(=O)N1CCOCC1,Ki,[6],0.08 nM
same,AD50,Mus musculus [18],0.013 mg/kg
O=C(N[C@@H]1C=C[C@H]2[C@H]3Cc4ccc(O)c5c4[C@@]2(CCN3CC2CC2)[C@H]1O5)c1cccc(I)c1,Ki,Mu-type opioid receptor [3],0.021 nM
same,Ki,[9],0.006 nM
same,Ki,[12],0.08 nM
same,ED50,Mus musculus [19],0.33 mg/kg
same,ED50,Mus musculus [20],1 mg/kg
CCCCN(CCc1ccccc1)CCc1cccc(O)c1,Ki,Mu-type opioid receptor [3],360 nM
same,Activity,[21],45.5%
same,Ki,[7],2700 nM
O=C(N[C@@H]1CC[C@@]2(O)[C@H]3Cc4ccc(O)c5c4[C@@]2(CCN3CC2CC2)[C@H]1O5)c1ccc2ccccc2c1,ED50,Mus musculus [22],18.7 pmol
COC(=O)[C@@H]1C[C@H](OC(C)=O)[C@H](O)[C@H]2[C@@]1(C)CC[C@H]1C(=O)O[C@H](c3ccoc3)C[C@]21C [1-ALPHA-HYDROXYSALVINORIN A],half-life,[23],3.75 h
same,half-life,[24],3.75 h
same,half-life,[25],3.75 h
N=C(N)Nc1ccc2c3c([nH]c2c1)[C@@H]1Oc2c(O)ccc4c2[C@@]12CCN(CC1CC1)[C@H](C4)[C@]2(O)C3,Ki,Mu-type opioid receptor [26],20.3 nM
same,Ki,[27],81.8 nM
CN1CC[C@]23c4c5ccc(O)c4O[C@H]2C(=O)CC[C@@]3(OCCCc2ccccc2)[C@H]1C5,Ki,Mu-type opioid receptor [26],0.073 nM
same,Ki,[9],0.3 nM
same,Ki,[28],0.13 nM
same,AD50,Mus musculus [29],0.0007 mg/kg
COC(=O)[C@@H]1C[C@H](OC(=O)C2=Cc3ccccc3C2)C(=O)[C@H]2[C@@]1(C)CC[C@H]1C(=O)O[C@H](c3ccoc3)C[C@]21C,Ki,[6],49.7 nM
same,Ki,Mu-type opioid receptor [3],538 nM
same,EC50,[4],853 nM
same,EC50,Mu-type opioid receptor [30],49.5 nM
C#Cc1occc1[C@@H]1C[C@@]2(C)[C@@H](CC[C@@]3(C)[C@H](C(=O)OC)C[C@H](OC(C)=O)C(=O)[C@@]32C)C(=O)O1,Ki,[6],2.5 nM
Cc1ccc(CSc2nnc(-c3ccccn3)n2Cc2ccco2)cc1C(F)(F)F,Ki,Mu-type opioid receptor [3],1900 nM
same,Ki,[7],5350 nM
CN(C(=O)/C=C/c1ccoc1)[C@@H]1CC[C@@]2(O)[C@H]3Cc4ccc(O)c5c4[C@@]2(CCN3CC2CC2)[C@H]1O5 [NALFURAFINE],ED50,"Mus musculus [31]; Mus musculus, read-out: ED50",0.003 mg/kg
same,ED50,"Mus musculus [17]; Mus musculus, read-out: ED50",0.062 mg/kg
CCCC[C@@H](NC(=O)[C@@H](CC1=CC=CCC1)NC(=O)[C@H](N)Cc1ccccc1)C(=O)N[C@H](CCCNC(=N)N)C(=O)NCc1ccncc1,Ki,[6],0.24 nM
same,AD50,Mus musculus [18],0.007 mg/kg
C[C@H]1[C@H]2Cc3ccc(C(N)=O)cc3[C@@]1(C)CCN2CC1CC1,Ki,[12],4.9 nM
same,ED50,Mus musculus [32],0.21 nmol
COC(=O)N1CCN(C(=O)Cc2ccc(Cl)c(Cl)c2)C(CN2CCCC2)C1 (configuration not stated),IC50,[33],0.041 nM
same,ED50,Mus musculus [34],0.00052 mg/kg
O=C1CNC(=O)[C@H](Cc2ccccc2)NC(=O)[C@@H](Cc2c[nH]c3ccccc23)NC(=O)CCN1 (cyclo(FG[βAla][dW])),Ki,[35],> 10 nM
same,Ki,[12],> 10 nM
Cc1cc(C)cc([C@@H]2CCCN2Cc2ccc(Oc3ccc(C(N)=O)cc3F)cc2)c1 [ATICAPRANT],Tmax,[36],1 h
same,half-life,[37],21 h
Oc1ccc2c(c1)[C@@]13CCCC[C@H]1[C@@H](C2)N(CC1CCC1)CC3 [BUTORPHAN],ED50,Mus musculus [31],7.3 nmol
same,ED50,Mus musculus [17],0.79 nmol
CCCC[C@@H](NC(=O)[C@@H](CC1=CC=CCC1)NC(=O)[C@H](N)Cc1ccccc1)C(=O)N[C@H](CCCNC(=N)N)C(N)=O,Ki,[6],< 1 nM
CC(C)=CCN1CC[C@]2(C)c3cc(O)ccc3C[C@H]1[C@H]2C [(+)-PENTAZOCINE],Ki,[6],7.6 nM
same,EC50,[4],40 nM
same,Ki,[7],62 nM
